As a reminder, the IC50 is the point on the concentration scale where inhibition reaches its midpoint.

For the assay, the target named is T1, Pyruvate kinase M2 (PKM2) (Mus musculus, UniProt P52480).
T1 construct: gene Pkm; full length recombinant mouse PKM2 (M2 isoform; pET-28a, from pLHCX-Flag-mPKM2)
As to the kind of experiment: LC-MS/MS peptide mapping of the covalent adduct on recombinant PKM2; competition with biotin probe; pyruvate kinase activity assay (IC50). Type of assay: biochemical.

T1 sequence (P52480 whole entry, canonical isoform): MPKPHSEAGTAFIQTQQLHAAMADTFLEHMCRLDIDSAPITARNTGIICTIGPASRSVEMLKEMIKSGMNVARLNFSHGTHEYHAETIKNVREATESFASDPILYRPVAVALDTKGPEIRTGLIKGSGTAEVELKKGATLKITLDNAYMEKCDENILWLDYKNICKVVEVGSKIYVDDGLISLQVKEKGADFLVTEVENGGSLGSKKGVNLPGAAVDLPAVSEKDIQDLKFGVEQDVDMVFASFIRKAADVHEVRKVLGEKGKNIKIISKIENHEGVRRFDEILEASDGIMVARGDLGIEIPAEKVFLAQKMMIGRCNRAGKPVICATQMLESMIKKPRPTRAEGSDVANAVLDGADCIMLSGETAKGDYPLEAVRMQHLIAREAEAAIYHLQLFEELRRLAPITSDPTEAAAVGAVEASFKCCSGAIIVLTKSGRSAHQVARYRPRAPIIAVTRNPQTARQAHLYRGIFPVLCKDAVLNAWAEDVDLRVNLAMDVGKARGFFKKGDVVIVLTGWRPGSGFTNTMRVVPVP

Consider `CC1=C(O)C(=O)C=C2C1=CC=C1[C@@]2(C)CC[C@@]2(C)[C@@H]3C[C@](C)(C(=O)O)CC[C@]3(C)CC[C@]12C` [celastrol], for which the IC50 amounted to 305 µM.

(Values after PMC9461663, “Covalent Inhibition of Pyruvate Kinase M2 Reprograms Metabolic and Inflammatory Pathways in Hepatic Macrophages against Non-alcoholic Fatty Liver Disease” (International Journal of Biological Sciences, 2022).)
